The values below come from US20240209371A1, “COMPOSITIONS AND METHODS FOR TREATING CANCER” (Dana-Farber Cancer Institute, Inc., priority 2021, published 2024).

Holding throughout (assay type): cell-based
Data set [1] relates to CRISPR-modified PC9 cell lines. Kind of data set: Cell viability assay of parental or CRISPR-modified PC9 cells with osimertinib. The procedure: Parental or CRISPR-modified PC9 cell lines (1×10^3 cells) were plated in 384-well plates. After 24 hours, cells were treated with drugs at the indicated concentrations for 72 hours. Endpoint cell viability assays were performed using Cell Titer Glo (Promega). RAS mutant cell lines (2×10^3 cells) were seeded in 384 ultra-low attachment plates as suspension cells and evaluated using 3D-Cell Titer Glo (Promega). RAS mutant cells were treated with trametinib for 3 days and with antisense oligos or siRNA for 8 days.

The test system of data set [2] is RAS-GTP. Kind of data set: RAS-GTP assay in KRAS expressing PC9 cell lines. The procedure: (§1) Cells were lysed with RIPA buffer (Boston Bioproducts) supplemented with complete Mini EDTA-free Protease inhibitor cocktail (Roche) and PhoSTOP phosphatase inhibitor cocktail (Roche). The total cell lysate (20 ug) was subjected to SDS polyacrylamide gel electrophoresis and transferred to Immobilon-P polyvinylidene difluoride membranes (Bio-Rad Laboratories). Antibodies are listed in supplementary table 10. RAS-GTP was evaluated using the Active Ras Detection Kit (#8821, Cell Signaling Technology). Cells were cultured with media containing 0.1% FBS with or without 1 μM osimertinib for 24 hours, and 80 ug of GST-Raf1-RBD and 500 ug of protein lysates were used according to the manufacturer's instructions.

The test system of data set [3] is ERK1/2. The data set can be described thus: Western blot after osimertinib treatment in PC9 cells. The method, then: as §1
Background: A western blot detects proteins with antibodies after separation by electrophoresis.

Data set [4] has as its system Q61 mutant cells. Kind of data set: Exon skipping by PS+2′MOE antisense oligos in Q61 mutant cells. Conditions: in vitro. The procedure:
RNA was extracted using the RNeasy Mini kit (Qiagen) and cDNA was synthesized using the QuantiTect Reverse Transcription Kit (Qiagen). Isoforms were amplified using gene-specific-primers (FIG. 24) and amplicons were resolved on a 2% agarose gel. Isoforms were characterized by Sanger sequencing.
RAS mutant cell lines in culture media were treated in suspension with indicated concentrations of morpholino and 3-6 μM endo-porter (Gene Tools). Duration of treatment was 2 days for RNA experiments, 3 days for western blot, and 8 days for growth-inhibition assay based on previously published treatment protocols with KRAS selective inhibitors against RAS mutant cells^4. In all experiments using full PS+2′MOE antisense oligos, medium was enriched with Ca^2+. Ca^2+ enrichment of medium potentiates the in vitro activity of multiple types of oligonucleotides and is more reflective of in vivo conditions than conventional transfection methods^42. Duration of treatment was 2 days for RNA experiments, 6 days for western blot, and 8 days for growth-inhibition assay.

Data set [5] relates to mutant KRAS pre-mRNA. Kind of data set: NGS of remaining full-length KRAS transcript in SW948 cells. Conditions: dose dependent, decreased from 44%. From the text: The use of mutant selective antisense oligos can be used to induce aberrant splicing only in tumor cells, but not in normal cells lacking the Q61 mutation, minimizing off target toxicity (FIG. 4 panel a). Using this approach, we induced skipping of whole exon 3 in the KRAS GQ60GK lung cancer CALU6 cell line, in a dose dependent manner (FIG. 4 panel b). […] To assess the selectivity of the morpholino for the KRAS mutant over wild type transcript, the identity of the full-length pre-mRNA contributing to the exon 3 spliced mRNA following morpholino treatment needed to be determined. […] We PCR-amplified KRAS cDNA generated from morpholino treated SW948 cells, separated it by gel electrophoresis and analyzed by NGS the remaining full-length transcript, in order to obtain the ratio of mutant versus wild type KRAS pre-mRNA targeted by the morpholino. […] We next evaluated the effect of these oligos on cell growth. As not all RAS mutant cell lines are dependent on RAS signaling for their growth^28, we determined RAS dependency of each of the Q61 mutant cell lines using KRAS, NRAS or HRAS specific siRNAs, and compared our findings to published gene effect scores for dependency by RNAi and CRISPR knock out obtained from Depmap (depmap.org) (FIG. 4 panel e). […] We also evaluated MEK inhibitor sensitivity in a panel of these cell lines using trametinib (FIG. 10 panel b). […]

As for `C=CC(=O)Nc1cc(Nc2nccc(-c3cn(C)c4ccccc34)n2)c(OC)cc1N(C)CCN(C)C` [osimertinib], the “effect of osimertinib on KRAS G12C, G12D, A146T, or BRAF V600E clones” value in data set [1] (1 μM osimertinib) is “largely unaffected”. Besides, the “osimertinib sensitivity of PC9 with heterozygous KRAS GQ60GK or Q61H” value in data set [1] (heterozygous mutations) is “resistance”. Moreover, the “osimertinib sensitivity of PC9 clones harboring KRAS Q61K without silent mutation” value in data set [1] (single-cell clones) is “growth inhibition comparable to that of parental PC9 cells”. Also, the “RAS-GTP levels after osimertinib, KRAS GQ60GK” value in data set [2] (PC9 KRAS GQ60GK) was “minimally affected”. In data set [2] (PC9 Q61K or parental), the “RAS-GTP after osimertinib, KRAS Q61K single mutant or KRAS wild type parental PC9” value is “decrease in RAS-GTP”. Further, the “ERK1/2 activation following osimertinib, KRAS GQ60GK c.180_181 delinsAA cells” value in data set [3] (PC9 KRAS GQ60GK) was “persistent ERK1/2 activation”. The “ERK1/2 activation following osimertinib, KRAS Q61K alone cells” value in data set [3] (PC9 KRAS Q61K alone) is on record as “not in cells expressing KRAS Q61K alone”.
As to “PS+MOE 1-3: 20nt PS+2′MOE antisense oligo; 1-3 sequence 5′-ACTCCTCTTTGCCTGCTGTG-3′ (all 2'-MOE, all phosphorothioate, methylation of C not given here)”, the “mutant selective exon skipping compared with morpholino oligos” value in data set [4] is listed as “mutant selective skipping at a much lower concentration”.
Turning to “mor-4: morpholino targeting KRAS Q61L; M4 / mor-4-4 sequence 5′-GTACTCCTCTAGACCTGCTGTGTCG-3′ (all phosphorodiamidate morpholino (PMO))”, in data set [5], the “fraction of mutant KRAS pre-mRNA within the full-length transcript species” value came to 22%.
